Patent US7902373B2 (Pfizer Inc, priority 2006, dated 2011)

These molecules were tested against human recombinant H-PGDS (Homo sapiens, UniProt O60760) (assay: Fluorescence intensity h-PGDS TBA enzyme assay). Details: Examples up to 622 (and 3a, 3b).
Assay type: biochemical

Sequence of human recombinant H-PGDS (O60760 whole entry): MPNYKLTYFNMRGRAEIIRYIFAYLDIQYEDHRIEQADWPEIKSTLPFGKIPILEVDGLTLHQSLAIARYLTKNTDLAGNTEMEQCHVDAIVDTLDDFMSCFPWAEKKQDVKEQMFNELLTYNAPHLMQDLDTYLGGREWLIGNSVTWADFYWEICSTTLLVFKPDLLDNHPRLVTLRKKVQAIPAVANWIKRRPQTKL

Structure (SMILES) | IC50
COc1ccc(CN2CCC(NC(=O)c3ccc(-c4cccc(F)c4)nc3)CC2)c(OC)c1 [Example 220, N-[1-(2,4-Dimethoxybenzyl)piperidin-4-yl]-6-(3-fluorophenyl)nicotinamide] | 2420 pM
COc1cccc(CN2CCC(NC(=O)c3ccc(-c4cccc(F)c4)nc3)CC2)c1 [Example 224, 6-(3-Fluorophenyl)-N-[1-(3-methoxybenzyl)piperidin-4-yl]nicotinamide] | 342 pM
O=C(NC1CCN(Cc2ccc(Cl)cc2)CC1)c1ccc(-c2cccc(F)c2)nc1 [Example 225, N-[1-(4-Chlorobenzyl)piperidin-4-yl]-6-(3-fluorophenyl)nicotinamide] | 2480 pM
COc1ccc2[nH]cc(CN3CCC(NC(=O)c4ccc(-c5cccc(F)c5)nc4)CC3)c2c1 [Example 226, 6-(3-Fluorophenyl)-N-{1-[(5-methoxy-1H-indol-3-yl)methyl]piperidin-4-yl}nicotinamide] | 1420 pM
CCOc1ccc(CN2CCC(NC(=O)c3ccc(-c4cccc(F)c4)nc3)CC2)cc1OCC [Example 228, N-[1-(3,4-Diethoxybenzyl)piperidin-4-yl]-6-(3-fluorophenyl)nicotinamide] | 2500 pM
CCOc1ccccc1CN1CCC(NC(=O)c2ccc(-c3cccc(F)c3)nc2)CC1 [Example 229, N-[1-(2-Ethoxybenzyl)piperidin-4-yl]-6-(3-fluorophenyl)nicotinamide] | 509 pM
COc1cccc(CN2CCC(NC(=O)c3ccc(-c4cccc(F)c4)nc3)CC2)c1OC [Example 230, N-[1-(2,3-Dimethoxybenzyl)piperidin-4-yl]-6-(3-fluorophenyl)nicotinamide] | 530 pM
COc1ccccc1CN1CCC(NC(=O)c2ccc(-c3cccc(F)c3)nc2)CC1 [Example 231, 6-(3-Fluorophenyl)-N-[1-(2-methoxybenzyl)piperidin-4-yl]nicotinamide] | 552 pM
CCOc1ccc(CN2CCC(NC(=O)c3ccc(-c4cccc(F)c4)nc3)CC2)cc1 [Example 234, N-[1-(4-Ethoxybenzyl)piperidin-4-yl]-6-(3-fluorophenyl)nicotinamide] | 1650 pM
O=C(NC1CCN(Cc2ccc(F)cc2F)CC1)c1ccc(-c2cccc(F)c2)nc1 [Example 237, N-[1-(2,4-Difluorobenzyl)piperidin-4-yl]-6-(3-fluorophenyl)nicotinamide] | 698 pM
O=C(NC1CCN(Cc2ccc3c(c2)OCCO3)CC1)c1ccc(-c2cccc(F)c2)nc1 [Example 241, N-[1-(2,3-Dihydro-14-benzodioxin-6-ylmethyl)piperidin-4-yl]-6-(3-fluorophenyl)nicotinamide] | 2190 pM
CC(=O)n1cc(CN2CCC(NC(=O)c3ccc(-c4cccc(F)c4)nc3)CC2)c2ccccc21 [Example 243, N-{1-[(1-Acetyl-1H-indol-3-yl)methyl]piperidin-4-yl}-6-(3-fluorophenyl)nicotinamide] | 1030 pM
O=C(NC1CCN(Cc2c(F)cccc2F)CC1)c1ccc(-c2cccc(F)c2)nc1 [Example 244, N-[1-(2,6-Difluorobenzyl)piperidin-4-yl]-6-(3-fluorophenyl)nicotinamide] | 288 pM
COc1ccc(CN2CCC(NC(=O)c3ccc(-c4cccc(F)c4)nc3)CC2)cc1Br [Example 245, N-[1-(3-Bromo-4-methoxybenzyl)piperidin-4-yl]-6-(3-fluorophenyl)nicotinamide] | 1200 pM
O=C(NC1CCN(Cc2cnc3ccccc3c2)CC1)c1ccc(-c2cccc(F)c2)nc1 [Example 246, 6-(3-Fluorophenyl)-N-[1-(quinolin-3-ylmethyl)piperidin-4-yl]nicotinamide] | 1970 pM
O=C(NC1CCN(Cc2cc(F)cc(F)c2)CC1)c1ccc(-c2cccc(F)c2)nc1 [Example 248, N-[1-(3,5-Difluorobenzyl)piperidin-4-yl]-6-(3-fluorophenyl)nicotinamide] | 1050 pM

Further molecules by falling IC50, results first:

IC50 | Structure (SMILES)
6640 pM | COc1ccc(CN2CCC(NC(=O)c3ccc(-c4cccc(F)c4)nc3)CC2)cc1 [Example 222, 6-(3-Fluorophenyl)-N-[1-(4-methoxybenzyl)piperidin-4-yl]nicotinamide]
2710 pM | Cc1c(CN2CCC(NC(=O)c3ccc(-c4cccc(F)c4)nc3)CC2)c(=O)n(-c2ccccc2)n1C [Example 232, N-{1-[(1,5-Dimethyl-3-oxo-2-phenyl-2,3-dihydro-1H-pyrazol-4-yl)methyl]piperidin-4-yl}-6-(3-fluorophenyl)nicotinamide]
1980 pM | COc1ccc(CN2CCC(NC(=O)c3ccc(-c4cccc(F)c4)nc3)CC2)cc1C [Example 235, 6-(3-Fluorophenyl)-N-[1-(4-methoxy-3-methylbenzyl)piperidin-4-yl]nicotinamide]
928 pM | O=C(NC1CCN(Cc2cc(Br)ccc2O)CC1)c1ccc(-c2cccc(F)c2)nc1 [Example 223, N-[1-(5-Bromo-2-hydroxybenzyl)piperidin-4-yl]-6-(3-fluorophenyl)nicotinamide]
815 pM | N#Cc1ccc(CN2CCC(NC(=O)c3ccc(-c4cccc(F)c4)nc3)CC2)cc1 [Example 227, N-[1-(4-Cyanobenzyl)piperidin-4-yl]-6-(3-fluorophenyl)nicotinamide]
781 pM | Cn1cc(CN2CCC(NC(=O)c3ccc(-c4cccc(F)c4)nc3)CC2)c2ccccc21 [Example 242, 6-(3-Fluorophenyl)-N-{1-[(1-methyl-1H-indol-3-yl)methyl]piperidin-4-yl}nicotinamide]
749 pM | Cn1c(CN2CCC(NC(=O)c3ccc(-c4cccc(F)c4)nc3)CC2)nc2ccccc21 [Example 219, 6-(3-Fluorophenyl)-N-{1-[(1-methyl-1H-benzimidazol-2-yl)methyl]piperidin-4-yl}nicotinamide]
653 pM | COc1ccc(CN2CCC(NC(=O)c3ccc(-c4cccc(F)c4)nc3)CC2)cc1F [Example 247, N-[1-(3-Fluoro-4-methoxybenzyl)piperidin-4-yl]-6-(3-fluorophenyl)nicotinamide]
577 pM | O=C(NC1CCN(Cc2ccc(F)c(F)c2F)CC1)c1ccc(-c2cccc(F)c2)nc1 [Example 236, 6-(3-Fluorophenyl)-N-[1-(2,3,4-trifluorobenzyl)piperidin-4-yl]nicotinamide]
446 pM | O=C(NC1CCN(CC2CC=CCC2)CC1)c1ccc(-c2cccc(F)c2)nc1 (stereo not drawn) [Example 221, N-[1-(Cyclohex-3-en-1-ylmethyl)piperidin-4-yl]-6-(3-fluorophenyl)nicotinamide]
352 pM | O=C(NC1CCN(Cc2cccc(Cl)c2)CC1)c1ccc(-c2cccc(F)c2)nc1 [Example 233, N-[1-(3-Chlorobenzyl)piperidin-4-yl]-6-(3-fluorophenyl)nicotinamide]
245 pM | O=C(NC1CCN(Cc2cc(F)ccc2F)CC1)c1ccc(-c2cccc(F)c2)nc1 [Example 239, N-[1-(2,5-Difluorobenzyl)piperidin-4-yl]-6-(3-fluorophenyl)nicotinamide]
181 pM | O=C(NC1CCN(Cc2cccc(F)c2F)CC1)c1ccc(-c2cccc(F)c2)nc1 [Example 240, N-[1-(2,3-Difluorobenzyl)piperidin-4-yl]-6-(3-fluorophenyl)nicotinamide]
135 pM | N#Cc1cccc(CN2CCC(NC(=O)c3ccc(-c4cccc(F)c4)nc3)CC2)c1 [Example 238, N-[1-(3-Cyanobenzyl)piperidin-4-yl]-6-(3-fluorophenyl)nicotinamide]
